In patent US20180008573A1, “METHODS AND COMPOSITIONS FOR REDUCING DAMAGE ASSOCIATED WITH OXIDATIVE PHOSPHORYLATION” (USANA Health Sciences, Inc., priority 2016, published 2018):
Marks after values point to notes of the source that are not given here.

Tests used:
human NF-κB = experiment: NF-κB antagonist reporter assay (NF-κB GRE-luciferase, HEK293 cells); type: cell-based;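 also: reporter cells carry native NF-κB receptor with firefly luciferase under upstream response elements, with a vehicle control included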
NF-κB reporter cells = experiment: Live cell multiplex assay in the NF-κB antagonist assay; type: cell-based, human
Method: A vehicle control was prepared.

Nrf2 = target: T1, Nrf2 (Homo sapiens, UniProt Q16236); experiment: Nrf2 agonist reporter assay (native receptor, ARE-luciferase, CV1 cells); type: cell-based; design: comprising either the native receptor (Nrf2 and NF-κB); expressed in transfected cells; host or cells: CV1
T1 sequence (Q16236 1-605): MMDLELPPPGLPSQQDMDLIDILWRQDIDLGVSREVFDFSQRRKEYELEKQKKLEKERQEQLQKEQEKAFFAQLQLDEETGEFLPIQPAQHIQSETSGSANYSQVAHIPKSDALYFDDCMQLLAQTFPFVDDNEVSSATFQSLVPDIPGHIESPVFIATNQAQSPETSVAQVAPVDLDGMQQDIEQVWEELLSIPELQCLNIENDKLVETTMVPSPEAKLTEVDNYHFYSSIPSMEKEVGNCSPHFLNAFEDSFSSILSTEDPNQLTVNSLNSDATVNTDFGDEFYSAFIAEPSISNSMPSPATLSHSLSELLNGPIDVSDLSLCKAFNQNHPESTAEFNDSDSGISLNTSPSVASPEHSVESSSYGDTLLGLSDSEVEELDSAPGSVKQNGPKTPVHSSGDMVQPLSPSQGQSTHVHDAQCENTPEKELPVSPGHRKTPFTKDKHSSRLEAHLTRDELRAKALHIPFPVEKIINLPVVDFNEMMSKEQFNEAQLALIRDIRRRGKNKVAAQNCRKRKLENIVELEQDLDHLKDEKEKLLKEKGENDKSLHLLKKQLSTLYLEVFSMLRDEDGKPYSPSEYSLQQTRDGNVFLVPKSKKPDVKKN

human PPARγ = target: T2, human PPARγ (Homo sapiens, UniProt P37231); experiment: PPARγ agonist reporter assay (Gal4 hybrid receptor, luciferase, CHO cells); type: cell-based
T2 construct: expressed in transfected cells; host or cells: CHO
T2 sequence (P37231 238-503 limits assumed): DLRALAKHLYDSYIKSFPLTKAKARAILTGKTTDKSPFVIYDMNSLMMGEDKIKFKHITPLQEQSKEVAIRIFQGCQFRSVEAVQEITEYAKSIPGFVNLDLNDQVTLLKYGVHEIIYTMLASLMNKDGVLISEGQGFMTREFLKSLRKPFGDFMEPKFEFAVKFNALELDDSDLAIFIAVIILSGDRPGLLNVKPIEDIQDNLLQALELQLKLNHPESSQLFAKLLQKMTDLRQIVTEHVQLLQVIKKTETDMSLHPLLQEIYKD

human PPARα = target: T3, human PPARα (Homo sapiens, UniProt Q07869); experiment: PPARα agonist reporter assay (Gal4 hybrid receptor, luciferase, CHO cells); type: cell-based
T3 construct: expressed in transfected cells; host or cells: CHO
T3 sequence (Q07869 239-466 limits assumed): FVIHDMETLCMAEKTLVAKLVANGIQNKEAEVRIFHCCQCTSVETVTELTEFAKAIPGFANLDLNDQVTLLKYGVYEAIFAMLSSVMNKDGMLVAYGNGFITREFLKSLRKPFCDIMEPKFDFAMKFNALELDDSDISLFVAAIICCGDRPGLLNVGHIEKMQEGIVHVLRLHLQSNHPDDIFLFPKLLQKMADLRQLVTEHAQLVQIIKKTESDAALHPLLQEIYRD

human PPARδ = target: T4, human PPARδ (Homo sapiens, UniProt Q03181); experiment: PPARδ agonist reporter assay (Gal4 hybrid receptor, luciferase, CHO cells); type: cell-based
T4 construct: expressed in transfected cells; host or cells: CHO
T4 sequence (Q03181 211-439 limits assumed): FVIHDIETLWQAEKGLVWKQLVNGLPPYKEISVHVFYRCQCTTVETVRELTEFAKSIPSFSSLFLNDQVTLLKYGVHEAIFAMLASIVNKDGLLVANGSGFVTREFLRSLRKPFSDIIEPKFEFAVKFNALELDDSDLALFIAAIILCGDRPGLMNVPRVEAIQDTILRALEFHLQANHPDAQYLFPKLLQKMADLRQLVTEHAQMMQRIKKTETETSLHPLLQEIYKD

## COc1cc(/C=C/C(=O)CC(=O)/C=C/c2ccc(O)c(OC)c2)ccc1O [Curcumin, curcumin]
Human NF-κB; 0.007 μg/ml active ingredient
  NF-κB % Inhibition: −10%
Human NF-κB; 0.022 μg/ml active ingredient
  NF-κB % Inhibition: −3.4%
Human NF-κB; 0.067 μg/ml active ingredient
  NF-κB % Inhibition: −0.29%
Human NF-κB; 0.20 μg/ml active ingredient
  NF-κB % Inhibition: 22%
Human NF-κB; 0.60 μg/ml active ingredient
  NF-κB % Inhibition: 30%
Human NF-κB; 1.81 μg/ml active ingredient
  NF-κB % Inhibition: 51** %
Human NF-κB; at the concentrations tested
  antagonist activity against human NF-κB: very low-level antagonist activity
NF-κB reporter cells; 0.007 μg/ml active ingredient
  NF-κB % Live Cell: 105%
NF-κB reporter cells; 0.022 μg/ml active ingredient
  NF-κB % Live Cell: 105%
NF-κB reporter cells; 0.067 μg/ml active ingredient
  NF-κB % Live Cell: 106%
NF-κB reporter cells; 0.20 μg/ml active ingredient
  NF-κB % Live Cell: 105%
NF-κB reporter cells; 0.60 μg/ml active ingredient
  NF-κB % Live Cell: 99%
NF-κB reporter cells; 1.81 μg/ml active ingredient
  NF-κB % Live Cell: 97%
Nrf2; 0.007 μg/ml active ingredient
  Nrf2 Fold-Activation: 1.6 fold
Nrf2; 0.022 μg/ml active ingredient
  Nrf2 Fold-Activation: 1.7 fold
Nrf2; 0.067 μg/ml active ingredient
  Nrf2 Fold-Activation: 1.4 fold
Nrf2; 0.20 μg/ml active ingredient
  Nrf2 Fold-Activation: 0.96 fold
Nrf2; 0.60 μg/ml active ingredient
  Nrf2 Fold-Activation: 1.0 fold
Nrf2; 1.81 μg/ml active ingredient
  Nrf2 Fold-Activation: 1.6 fold
Human PPARγ; 0.007 μg/ml active ingredient
  PPARγ Fold-Activation: 1.0 fold
Human PPARγ; 0.022 μg/ml active ingredient
  PPARγ Fold-Activation: 1.0 fold
Human PPARγ; 0.067 μg/ml active ingredient
  PPARγ Fold-Activation: 0.95 fold
Human PPARγ; 0.20 μg/ml active ingredient
  PPARγ Fold-Activation: 0.96 fold
Human PPARγ; 0.60 μg/ml active ingredient
  PPARγ Fold-Activation: 0.90 fold
Human PPARγ; 1.81 μg/ml active ingredient
  PPARγ Fold-Activation: 1.1 fold
Human PPARα; 0.007 μg/ml active ingredient
  PPARα Fold-Activation: 1.3 fold
Human PPARα; 0.022 μg/ml active ingredient
  PPARα Fold-Activation: 1.3 fold
Human PPARα; 0.067 μg/ml active ingredient
  PPARα Fold-Activation: 1.3 fold
Human PPARα; 0.20 μg/ml active ingredient
  PPARα Fold-Activation: 1.1 fold
Human PPARα; 0.60 μg/ml active ingredient
  PPARα Fold-Activation: 1.0 fold
Human PPARα; 1.81 μg/ml active ingredient
  PPARα Fold-Activation: 0.86 fold
Human PPARδ; 0.007 μg/ml active ingredient
  PPARδ Fold-Activation: 1.2 fold
Human PPARδ; 0.022 μg/ml active ingredient
  PPARδ Fold-Activation: 1.2 fold
Human PPARδ; 0.067 μg/ml active ingredient
  PPARδ Fold-Activation: 1.0 fold
Human PPARδ; 0.20 μg/ml active ingredient
  PPARδ Fold-Activation: 1.2 fold
Human PPARδ; 0.60 μg/ml active ingredient
  PPARδ Fold-Activation: 1.3 fold
Human PPARδ; 1.81 μg/ml active ingredient
  PPARδ Fold-Activation: 1.0 fold

## COc1ccc([C@@H]2CC(=O)c3c(O)cc(O)cc3O2)cc1O [Hesperetin, (S)-2,3-Dihydro-5,7-dihydroxy-2-(3-hydroxy-4-methoxyphenyl)-4H-1-benzopyran-4-one]
Human NF-κB; 0.043 μg/ml active ingredient
  NF-κB % Inhibition: −11%
Human NF-κB; 0.389 μg/ml active ingredient
  NF-κB % Inhibition: −2.1%
Human NF-κB; 1.167 μg/ml active ingredient
  NF-κB % Inhibition: 14%
Human NF-κB; 3.5 μg/ml active ingredient
  NF-κB % Inhibition: 39%
NF-κB reporter cells; 0.043 μg/ml active ingredient
  NF-κB % Live Cell: 98%
NF-κB reporter cells; 0.389 μg/ml active ingredient
  NF-κB % Live Cell: 99%
NF-κB reporter cells; 1.167 μg/ml active ingredient
  NF-κB % Live Cell: 98%
NF-κB reporter cells; 3.5 μg/ml active ingredient
  NF-κB % Live Cell: 96%
Nrf2; 0.043 μg/ml active ingredient
  Nrf2 Fold-Activation: 1.4 fold
Nrf2; 0.389 μg/ml active ingredient
  Nrf2 Fold-Activation: 1.3 fold
Nrf2; 1.167 μg/ml active ingredient
  Nrf2 Fold-Activation: 1.5 fold
Nrf2; 3.5 μg/ml active ingredient
  Nrf2 Fold-Activation: 0.94 fold
Human PPARγ; 0.043 μg/ml active ingredient
  PPARγ Fold-Activation: 1.0 fold
Human PPARγ; 0.389 μg/ml active ingredient
  PPARγ Fold-Activation: 1.1 fold
Human PPARγ; 1.167 μg/ml active ingredient
  PPARγ Fold-Activation: 1.1 fold
Human PPARγ; 3.5 μg/ml active ingredient
  PPARγ Fold-Activation: 0.55 fold
Human PPARα; 0.043 μg/ml active ingredient
  PPARα Fold-Activation: 1.4 fold
Human PPARα; 0.389 μg/ml active ingredient
  PPARα Fold-Activation: 1.2 fold
Human PPARα; 1.167 μg/ml active ingredient
  PPARα Fold-Activation: 1.0 fold
Human PPARα; 3.5 μg/ml active ingredient
  PPARα Fold-Activation: 0.79 fold
Human PPARδ; 0.043 μg/ml active ingredient
  PPARδ Fold-Activation: 1.1 fold
Human PPARδ; 0.389 μg/ml active ingredient
  PPARδ Fold-Activation: 1.0 fold
Human PPARδ; 1.167 μg/ml active ingredient
  PPARδ Fold-Activation: 1.1 fold
Human PPARδ; 3.5 μg/ml active ingredient
  PPARδ Fold-Activation: 0.89 fold
